Read-outs that look alike come from different tables or passages of the source.
Columns and labels:
HepG2 cells [1] = assay: HepG2 cytotoxicity assay; conditions: HepG2 cytotoxicity unified across the three screens
Procedure, shortened: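 Cells at 2,500 per well in MEM with 10% fetal bovine serum and 1% NEAA were exposed to test compounds for 48 h at 37°C, 5% CO2. Viability was read by fluorescence, with percent inhibition calculated against 50 μM doxorubicin (positive) and DMSO (negative) controls.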

[2] = system: P. falciparum late stage (stages IV-V) gametocytes; design: method as in Almela et al 2016; conditions: TCAMS screen comparison; ref Almela et al 2016; read-out: Pf GCT ATP IC50; cited from earlier work
[3] = system: P. falciparum female gametocytes; design: method as in Miguel-Blanco et al 2017; conditions: TCAMS screen comparison; ref Miguel-Blanco et al 2017; read-out: Pf FGAA IC50; cited from earlier work
HepG2 cells [4] = conditions: cited from earlier work
[5] = system: P. falciparum female gametocytes; assay: P. falciparum female gametogenesis assay (Pf FGAA); conditions: 1: YES; 0: NO
[6] = system: P. falciparum late stage (stages IV-V) gametocytes; assay: P. falciparum late stage gametocyte ATP depletion assay (Pf GC-ATP); conditions: 1: YES; 0: NO
[7] = value reported with the Pf FGAA screen, ref Miguel-Blanco et al 2017
[8] = value reported with the Pf GCT ATP screen, ref Almela et al 2016

SMILES	Unified cytotox (HepG2 cells [1]) [µM]	IC50 [2] [nM]	IC50 [3] [nM]	HepG2 cytoxicity (HepG2 cells [4]; [7]) [µM]	HepG2 cytoxicity (HepG2 cells [4]; [8]) [µM]	Is compound selective in assay? Pf FGAA active? [5]	Is compound selective in assay? Pf GC-ATP active? [6]
c1ccc2sc(Sc3ncnc4sccc34)nc2c1 [TCMDC-125539]	100.00	500	140	>100	>25	1 (1: YES)	1 (1: YES)
CCN(CC)/C(=N/C(=N)NCc1ccc(Cl)cc1Cl)NCCCCCCN/C(=N\C(=N)NCc1ccc(Cl)cc1Cl)N(CC)CC [TCMDC-131819]	36.73	300	4750	36.73		0 (0: NO)	1 (1: YES)
COc1cc(NCCCNCc2cn(Cc3cc(Br)cc(Br)c3)c3ccccc23)nc2ccccc12 [TCMDC-140677]	5.03	590	860	3.94	6.13	0 (0: NO)	0 (0: NO)
Cl.c1ccc2c(NCCCCCCCCCNc3ccnc4ccccc34)ccnc2c1 [TCMDC-137750]	2.20	1030	850	1.50	2.9	0 (0: NO)	0 (0: NO)
CC(Cc1ccc(C(=O)Nc2ccc(CC(C)NCCc3cccc(Cl)c3)cc2)cc1)NCCc1ccc(C(F)(F)F)cc1 (centres unmarked) [TCMDC-139790]	3.71	310	1010	4.13	3.3	0 (0: NO)	1 (1: YES)
CC(C)c1ccc(CN2CCC(CNC(=O)c3cc(-c4cccc(F)c4)cs3)C2)cc1.O=C(O)C(F)(F)F (centres unmarked) [TCMDC-134437]	5.77	450	1370	6.24	5.3	0 (0: NO)	1 (1: YES)
CCC(CSC1CCCCC1)N(C)CCN(C)C(CC)CSC1CCCCC1.Cl (centres unmarked) [TCMDC-131456]	0.47	1400	1250	0.0654	0.87	0 (0: NO)	0 (0: NO)
CN1CCN(CCCNCc2cccc(Nc3nccc(Nc4ccc(Oc5ccccc5)cc4)n3)c2)CC1 [TCMDC-138616]	4.92	320	980	4.68	5.17	0 (0: NO)	1 (1: YES)
Cc1oc(-c2ccc(Cl)cc2)cc1C(=O)NCCC1CCN(CCCCCNC(=O)/C=C/c2ccc(Cl)c(Cl)c2)CC1 [TCMDC-140009]	3.71	5430	1830	3.31	4.1	0 (0: NO)	0 (0: NO)

Reference: publication PMC6753678, “Fueling Open Innovation for Malaria Transmission-Blocking Drugs: Hundreds of Molecules Targeting Early Parasite Mosquito Stages” (Frontiers in Microbiology, 2019)
